Patent US9226891B2, “Anti-flush compositions” (Vitalis LLC, priority 2011, dated 2016)

Columns and labels:
[1] = test system: flushing side effect of niacin; test: Example 1: flush rating on the Global Flush Severity Scale (GFSS) after niacin, with or without aspirin; format: in vivo, human; conditions: for reduction of flush severity (GFSS) from Period I: vs niacin alone
Description: Healthy human patients were recruited for this study. […] Each patient was asked to rate his or her flush on the Global Flush Severity Scale (GFSS) (see FIG. 1 and Paolini et al. Int. J. Clin. Pract. 62(6):896-904 (2008)), when the flush completely resolved. The Global Flushing Severity Score measures, overall, in the previous 24 hours, how each patient rates the flushing symptoms, including redness, warmth, tingling, and itchiness of the skin. […] After the flush completely resolved, then each patient recorded his or her GFSS flush rating. Not until at least two days later did Period III start. At Period III, each patient was asked to not swallow the orally administered aspirin (81 mg) but to allow the aspirin to be absorbed through the oral mucosa. The aspirin was in powdered form and the remaining aspirin in the mouth was washed out with water. […] Still, the flush was rated (GFSS) after it was resolved. […] The flush was then rated (GFSS) after it completely resolved.

[2] = GI-absorbed aspirin; cited from earlier work

Structure (SMILES): CC(=O)Oc1ccccc1C(=O)O [aspirin]
- reduction of flush severity (GFSS) from Period I ([1]; Period II: 81 mg aspirin swallowed + 500 mg niacin): 18%
- Global Flush Severity Scale (GFSS) average score ([1]; Period II: 81 mg aspirin swallowed, followed by 500 mg niacin): 6.88
- Global Flush Severity Scale (GFSS) average score ([1]; Period III: 81 mg aspirin mucosally absorbed (not swallowed), then 500 mg niacin): 5.06
- reduction of flush severity (GFSS) from Period I ([1]; Period III: 81 mg aspirin mucosally absorbed + 500 mg niacin): 40%
- Global Flush Severity Scale (GFSS) average score ([1]; Period IV: 81 mg aspirin half mucosally absorbed and half swallowed, then 500 mg niacin): 3.94
- reduction of flush severity (GFSS) from Period I ([1]; Period IV: 81 mg aspirin half mucosally absorbed, half swallowed + 500 mg niacin): 53%
- time to peak aspirin serum level following administration [2]: 15 to 20 min
